In patent publication EP4603105A1, “PHARMACEUTICAL COMPOSITION CONTAINING CYCLIC COMPOUND HAVING SELECTIVE KRAS INHIBITORY EFFECT AGAINST HRAS AND NRAS” (CHUGAI SEIYAKU KABUSHIKI KAISHA, priority 2022, dated 2024):

Tests used:
[1] = biological target: GDP-bound KRAS wild-type protein (Homo sapiens, UniProt P01116); assay: Binding to KRAS by surface plasmon resonance (SPR), dissociation constant KD
Method in brief: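 Affinity is measured by surface plasmon resonance at 30°C against captured, GDP-loaded RAS carrying a biotinylated Avi tag. Compounds are titrated by single-cycle kinetics, and KD comes from a 1:1 fit.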

HRAS wild-type protein = HRAS wild-type protein (Homo sapiens, UniProt P01112); assay: Binding to HRAS by surface plasmon resonance (SPR), KD and KD ratio to KRAS; conditions: ratio of KD for HRAS wild-type protein to KD for KRAS
Method in brief: (§1)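 Each cycle, GDP-bound biotin-Avi RAS was captured (~100–300 RU), compound concentrations were injected low to high for 75 s each at 100 µL/min, then the chip was regenerated. Buffer: HBS pH 7.4, 10 mM MgCl2, 10 µM GDP, 1 mM DTT, 4% DMSO; 30°C. KD from a 1:1 binding model.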

[2] = tested on: human lung cancer strain NCI-H441; assay: NCI-H441 cell proliferation inhibitory activity (CellTiter-Glo, 4 days); assay type: cell-based; conditions: NCI-H441 cells, 4 days, read-out: NCl-H441 IC50
Method in brief: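 Signal came from […] measured per well once the reagent was added. Beforehand, cells were cultured at 37°C and 5% carbon dioxide on a compound series serially diluted in dimethyl sulfoxide.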

[3] = biological target: GDP-bound NRAS wild-type protein (Homo sapiens, UniProt P01111); assay: Binding to NRAS by surface plasmon resonance (SPR), KD and KD ratio to KRAS; conditions: ratio of KD for GDP-bound NRAS wild-type protein to KD for KRAS
Method in brief: as §1

GDP-bound NRAS wild-type protein, sequence (P01111 whole entry): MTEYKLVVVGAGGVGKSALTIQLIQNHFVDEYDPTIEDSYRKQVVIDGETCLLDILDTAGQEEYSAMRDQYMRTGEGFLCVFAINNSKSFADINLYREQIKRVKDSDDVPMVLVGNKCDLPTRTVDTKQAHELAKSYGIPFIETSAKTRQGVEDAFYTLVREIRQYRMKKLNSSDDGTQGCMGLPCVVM
HRAS wild-type protein, sequence (P01112 whole entry): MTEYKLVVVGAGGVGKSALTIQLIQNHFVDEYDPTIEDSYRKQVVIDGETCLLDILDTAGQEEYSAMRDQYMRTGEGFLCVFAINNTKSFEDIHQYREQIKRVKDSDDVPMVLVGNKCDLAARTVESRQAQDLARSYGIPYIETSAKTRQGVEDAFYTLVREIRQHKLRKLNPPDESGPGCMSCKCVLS
GDP-bound KRAS wild-type protein, sequence (P01116 1-188 isoform P01116-2): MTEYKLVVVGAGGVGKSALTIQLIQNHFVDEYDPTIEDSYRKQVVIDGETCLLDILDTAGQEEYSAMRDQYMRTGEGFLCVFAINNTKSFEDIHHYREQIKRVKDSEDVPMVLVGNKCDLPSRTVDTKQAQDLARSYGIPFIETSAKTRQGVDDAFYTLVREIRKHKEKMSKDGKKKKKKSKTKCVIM

CCCO[C@@H]1C[C@H]2C(=O)NC3(CC(C)(C)C3)C(=O)N(C)[C@@H](C3CCCC3)C(=O)N(C)[C@H](C(=O)N(C)CC)CC(=O)N(C)[C@@H](COCC)C(=O)N[C@@H]([C@@H](C)CC)C(=O)N(C3CC3)CC(=O)N(C)[C@H]3C/C=C\CCN(C3=O)[C@@H](Cc3ccc(C)cc3)C(=O)N(C)CC(=O)N[C@@H](CCc3ccc(C(F)(F)F)c(Cl)c3)C(=O)N2C1 [PP3462]
Kd ([1]; Single Cycle Kinetics): 0.68 nM
HRAS /KRAS (HRAS wild-type protein): A (a compound having 10 or more and less than 20 is denoted as A)
IC50 [2]: 39.7 nM
NRAS /KRAS [3]: AA (a compound having 20 or more is denoted as AA)

CCC[C@H]1C(=O)N[C@@H]([C@@H](C)CC)C(=O)N(C2CC2)CC(=O)N(C)[C@H]2C/C=C\CCN(C2=O)[C@@H](Cc2ccc(C(F)(F)F)cc2)C(=O)N(C)CC(=O)N[C@@H](CCc2ccc(C(F)(F)F)c(OC)c2)C(=O)N2CC[C@H](OC)[C@H]2C(=O)N(C)C2(CCC2)C(=O)N(C)[C@@H](C2CCCC2)C(=O)N(C)[C@H](C(=O)N(C)C)CC(=O)N1C [PP3239]
Kd ([1]; Single Cycle Kinetics): 0.23 nM
HRAS /KRAS (HRAS wild-type protein): A (a compound having 10 or more and less than 20 is denoted as A)
IC50 [2]: 6.5 nM
NRAS /KRAS [3]: A (a compound having 10 or more and less than 20 is denoted as A)

C#CC[C@H]1C(=O)N[C@@H]([C@@H](C)CC)C(=O)N2CCC[C@H]2C(=O)N(C)[C@H]2C/C=C\CCN(C2=O)[C@@H](Cc2ccc(C(F)(F)F)cc2)C(=O)N(C)CC(=O)N[C@@H](CCc2ccc(C(F)(F)F)c(Cl)c2)C(=O)N2C[C@H](OCC)C[C@H]2C(=O)N(C)C2(CCC2)C(=O)N(C)[C@@H](C2CCCC2)C(=O)N(C)[C@H](C(=O)N(C)C)CC(=O)N1C [PP3254]
Kd ([1]; Single Cycle Kinetics): 0.086 nM
HRAS /KRAS (HRAS wild-type protein): B (a compound having 3 or more and less than 10 is denoted as B)
IC50 [2]: 3.6 nM
NRAS /KRAS [3]: A (a compound having 10 or more and less than 20 is denoted as A)

CCC[C@H]1C(=O)N[C@@H]([C@@H](C)CC)C(=O)N2CCCCC[C@H]2C(=O)N(C)[C@H]2C/C=C\CCN(C2=O)[C@@H](Cc2ccc(C)cc2)C(=O)N(C)CC(=O)N[C@@H](CCc2ccc(C(F)(F)F)c(OC)c2)C(=O)N2C[C@H](OCC)C[C@H]2C(=O)N(C)C2(CCC2)C(=O)N(C)[C@@H](C2CCCC2)C(=O)N(C)[C@H](C(=O)N(C)C)CC(=O)N1C [PP3279]
Kd ([1]; Single Cycle Kinetics): 4.5 nM
HRAS /KRAS (HRAS wild-type protein): B (a compound having 3 or more and less than 10 is denoted as B)
IC50 [2]: 144 nM
NRAS /KRAS [3]: A (a compound having 10 or more and less than 20 is denoted as A)

CCC[C@H]1C(=O)N[C@@H]([C@@H](C)CC)C(=O)N(C)CC(=O)N(C)[C@H]2C/C=C\CCN(C2=O)[C@@H](Cc2ccc(C(F)(F)F)cc2)C(=O)N(C)CC(=O)N[C@@H](CCc2ccc(C(F)(F)F)c(OC)c2)C(=O)N2CC3(CC3)C[C@H]2C(=O)NC2(CCC2)C(=O)N(C)[C@@H]([C@@H](C)CC)C(=O)N(C)[C@H](C(=O)N(C)C)CC(=O)N1C [PP3410]
Kd ([1]; Single Cycle Kinetics): 0.24 nM
HRAS /KRAS (HRAS wild-type protein): A (a compound having 10 or more and less than 20 is denoted as A)
IC50 [2]: 15.6 nM
NRAS /KRAS [3]: AA (a compound having 20 or more is denoted as AA)

CCO[C@@H]1C[C@H]2C(=O)OC3(CCC3)C(=O)N(C)[C@@H](C3CCCC3)C(=O)N(C)[C@H](C(=O)N(C)C)CC(=O)N(C)[C@@H]([C@H](C)OC)C(=O)N[C@@H]([C@@H](C)CC)C(=O)N(C3CC3)CC(=O)N(C)[C@H]3C/C=C\CCN(C3=O)[C@@H](Cc3ccc(C(F)(F)F)cc3)C(=O)N(C)CC(=O)N[C@@H](CCc3ccc(C(F)(F)F)c(OC)c3)C(=O)N2C1 [PP3378]
Kd ([1]; Single Cycle Kinetics): 1.3 nM
HRAS /KRAS (HRAS wild-type protein): A (a compound having 10 or more and less than 20 is denoted as A)
IC50 [2]: 11.6 nM
NRAS /KRAS [3]: A (a compound having 10 or more and less than 20 is denoted as A)

CCCC[C@H]1C(=O)N[C@@H]([C@@H](C)CC)C(=O)N2CCC[C@H]2C(=O)N(C)[C@H]2C/C=C\CCN(C2=O)[C@@H](Cc2ccc(C(F)(F)F)cc2)C(=O)N(C)CC(=O)N[C@@H](CCc2ccc(C(F)(F)F)c(OC)c2)C(=O)N2C[C@H](OCC)C[C@H]2C(=O)OC2(CCC2)C(=O)N(C)[C@@H](C2CCCC2)C(=O)N(C)[C@H](C(=O)N(C)C)CC(=O)N1C [PP3365]
Kd ([1]; Single Cycle Kinetics): 0.65 nM
HRAS /KRAS (HRAS wild-type protein): A (a compound having 10 or more and less than 20 is denoted as A)
IC50 [2]: 19.4 nM
NRAS /KRAS [3]: AA (a compound having 20 or more is denoted as AA)

CCO[C@@H]1C[C@H]2C(=O)OC3(CCC3)C(=O)N(C)[C@@H](C3CCCC3)C(=O)N(C)[C@H](C(=O)N(C)C)CC(=O)N(C)[C@@H](CC(C)C)C(=O)N[C@@H]([C@@H](C)CC)C(=O)N(C3CC3)CC(=O)N(C)[C@H]3C/C=C\CCN(C3=O)[C@@H](Cc3ccc(C(F)(F)F)cc3)C(=O)N(C)CC(=O)N[C@@H](CCc3ccc(C(F)(F)F)c(OC)c3)C(=O)N2C1 [PP3363]
Kd ([1]; Single Cycle Kinetics): 1.8 nM
HRAS /KRAS (HRAS wild-type protein): B (a compound having 3 or more and less than 10 is denoted as B)
IC50 [2]: 24.8 nM
NRAS /KRAS [3]: A (a compound having 10 or more and less than 20 is denoted as A)

CC[C@H](C)[C@@H]1NC(=O)[C@H](COC)N(C)C(=O)C[C@@H](C(=O)N(C)C)N(C)C(=O)[C@H](C2CCCC2)N(C)C(=O)C2(CC(C)(C)C2)NC(=O)[C@@H]2C[C@H](C)CN2C(=O)[C@H](CCc2ccc(C(F)(F)F)c(OC)c2)NC(=O)CN(C)C(=O)[C@H](Cc2ccc(C)cc2)N2CC/C=C\C[C@@H](C2=O)N(C)C(=O)[C@@H]2C[C@H](C)CN2C1=O [PP2386]
Kd ([1]; 1:1 binding model): 1.2 nM
HRAS /KRAS (HRAS wild-type protein): B (a compound having 3 or more and less than 10 is denoted as B)
IC50 [2]: 28.1 nM
NRAS /KRAS [3]: A (a compound having 10 or more and less than 20 is denoted as A)

CCCOC[C@H]1C(=O)N[C@@H]([C@@H](C)CC)C(=O)N(C)CC(=O)N(C)[C@H]2C/C=C\CCN(C2=O)[C@@H](CC2CCC(F)(F)CC2)C(=O)N(C)CC(=O)N[C@@H](CCc2ccc(C(F)(F)F)c(OC)c2)C(=O)N2C[C@@H](C)C[C@H]2C(=O)NC2(CC(C)(C)C2)C(=O)N(C)[C@@H](C(CC)CC)C(=O)N(C)[C@H](C(=O)N(C)C)CC(=O)N1C [PP2483]
Kd ([1]; 1:1 binding model): 1.6 nM
HRAS /KRAS (HRAS wild-type protein): A (a compound having 10 or more and less than 20 is denoted as A)
IC50 [2]: 195 nM
NRAS /KRAS [3]: A (a compound having 10 or more and less than 20 is denoted as A)

CCOC[C@H]1C(=O)N[C@@H]([C@@H](C)CC)C(=O)N(C)CC(=O)N(C)[C@H]2C/C=C\CCN(C2=O)[C@@H](Cc2ccc(C)cc2)C(=O)N(C)CC(=O)N[C@@H](CCc2ccc(C(F)(F)F)c(OC)c2)C(=O)N2C[C@@H](C)C[C@H]2C(=O)NC2(CC(C)(C)C2)C(=O)N(C)[C@@H](C2CCCC2)C(=O)N(C)[C@H](C(=O)N(C)C)CC(=O)N1C [PP2505]
Kd ([1]; 1:1 binding model): 0.13 nM
HRAS /KRAS (HRAS wild-type protein): B (a compound having 3 or more and less than 10 is denoted as B)
IC50 [2]: 17.2 nM
NRAS /KRAS [3]: A (a compound having 10 or more and less than 20 is denoted as A)

CCC[C@H]1C(=O)N[C@@H]([C@@H](C)CC)C(=O)N(C2CC2)CC(=O)N(C)[C@H]2C/C=C\CCN(C2=O)[C@@H](Cc2ccc(C)cc2)C(=O)N(C)CC(=O)N[C@@H](CCc2ccc(C(F)(F)F)c(OC)c2)C(=O)N2C[C@@H](C)C[C@H]2C(=O)N(C)C2(CCC2)C(=O)N(C)[C@@H](C2CCCC2)C(=O)N(C)[C@H](C(=O)N(C)C)CC(=O)N1C [PP2366]
Kd ([1]; 1:1 binding model): 0.048 nM
HRAS /KRAS (HRAS wild-type protein): A (a compound having 10 or more and less than 20 is denoted as A)
IC50 [2]: 4.5 nM
NRAS /KRAS [3]: A (a compound having 10 or more and less than 20 is denoted as A)

CCC[C@H]1C(=O)N[C@@H]([C@@H](C)CC)C(=O)N(C)CC(=O)N(C)[C@H]2C/C=C\CCN(C2=O)[C@@H](Cc2ccc(C)cc2)C(=O)N(C)CC(=O)N[C@@H](CCc2ccc(Cl)c(Cl)c2)C(=O)N2C[C@H](OCC)C[C@H]2C(=O)NC2(CC(C)(C)C2)C(=O)N(C)[C@@H](CC2CCC2)C(=O)N(C)[C@H](C(=O)N(C)C)CC(=O)N1C [PP2755]
Kd ([1]; 1:1 binding model): 0.56 nM
HRAS /KRAS (HRAS wild-type protein): A (a compound having 10 or more and less than 20 is denoted as A)
IC50 [2]: 35.7 nM
NRAS /KRAS [3]: A (a compound having 10 or more and less than 20 is denoted as A)

CCCO[C@@H]1C[C@H]2C(=O)NC3(CC(C)(C)C3)C(=O)N(C)[C@@H](C3CCCC3)C(=O)N(C)[C@H](C(=O)N(C)CC)CC(=O)N[C@@H](COCC)C(=O)N[C@@H]([C@@H](C)CC)C(=O)N3CCC[C@H]3C(=O)N(C)[C@H]3C/C=C\CCN(C3=O)[C@@H](Cc3ccc(C)cc3)C(=O)N(C)CC(=O)N[C@@H](CCc3ccc(C(F)(F)F)c(OC)c3)C(=O)N2C1 [PP3439]
Kd ([1]; Single Cycle Kinetics): 1.7 nM
HRAS /KRAS (HRAS wild-type protein): A (a compound having 10 or more and less than 20 is denoted as A)
IC50 [2]: 148 nM
NRAS /KRAS [3]: A (a compound having 10 or more and less than 20 is denoted as A)

CC[C@H](C)[C@@H]1NC(=O)[C@H](COC)N(C)C(=O)C[C@@H](C(=O)N(C)C)N(C)C(=O)[C@H](C2CCCC2)N(C)C(=O)C2(CC(C)(C)C2)NC(=O)[C@@H]2C[C@@H](OC(C)C)CN2C(=O)[C@H](CCc2cc(F)c(C(F)(F)F)c(F)c2)NC(=O)CN(C)C(=O)[C@H](CC2CCCCC2)N2CC/C=C\C[C@@H](C2=O)N(C)C(=O)CN(C2CC2)C1=O [PP2511]
Kd ([1]; 1:1 binding model): 0.95 nM
HRAS /KRAS (HRAS wild-type protein): A (a compound having 10 or more and less than 20 is denoted as A)
IC50 [2]: 107 nM
NRAS /KRAS [3]: A (a compound having 10 or more and less than 20 is denoted as A)
